Laboratory results as given in US5045543A, “5-amino or substituted amino 1,2,3-triazoles useful as antimetastatic agents” (Merck & Co., Inc., priority 1989, dated 1991).
In brackets after ≈: the same amount, converted by molar mass.

How the values were obtained:
[1] = test system: PAPp26 Murine Keratinocytes; conditions: proliferation assay
Method: In these experiments Murine keratinocyte transformed cell line PAPp26 was cultured in Dulbecco's modified Eagle's medium with 10% fetal calf serum at 37° C., 5% CO2. Each well of a 96 well plate was seeded with 2000 cells in 200 μl of each drug dilution in duplicate. A plate was stopped and fixed for each time point, stained with Giemsa and then read in a Titertek plate reader at 650 nm, and the absorbances were calibrated with known cell numbers on control plates.

psoriasis = conditions: cited from earlier work; for side effects in psoriasis treatment: in vivo; for efficacy in psoriasis: mycophenolic acid given orally; for clearing of psoriatic lesions: used experimentally
[2] = test system: pig skin epidermal basal cells (keratinocytes); assay: UV induced hyperproliferation in pig skin in vivo (topical antiproliferative activity)
Method: The topical antiproliferative activities, along with in vitro antiproliferative activities against human keratinocytes and fibroblasts, provide the biological data in support of the claimed utility:
In one experiment, a 20 kg pig was sedated and multiple areas of clipped skin were exposed to uv radiation sufficient to provoke a moderate hyperproliferative response within several days of exposure. On days 0, 1, 2 and 3 replicate irradiated sites were treated topically with Compound A in several vehicles or solvents. Topical preparations included a 2% drug in Gel #1, a combination of isopropyl myristate:Crodamol:ethanol, 1:1:2, or DMSO. The hyperproliferative response of the skin to uv was assessed on day 4 by injecting ^3 H-thymidine intradermally, and, 1 hour later, removing the sites by punch biopsy and processing the samples for autoradiography. Such autoradiographs indicate the number of epidermal cells in S phase synthesizing DNA and this is a common tool used by dermatologists to assess inhibition of proliferation in vivo. A single injection of methotrexate, 4 hours prior to ^3 H-thymidine injection was used as a positive control for inhibition of DNA synthesis. A labelling index, L.I., which is the percent of the total number of epidermal basal cells (keratinocytes) counted showing label incorporation. Four days after exposure to uv, the L.I. of pig skin increased from 7.6% to 20.8% (normal human skin ca. 2%, psoriatic lesions ca. 25%, for comparison).

Compound | ED50 PAPp26 [1] | side effects in psoriasis treatment (psoriasis) | efficacy in psoriasis (psoriasis) | other results
NC(=O)c1nnn(Cc2cc(Cl)c(Oc3ccc(Br)cc3)c(Cl)c2)c1N [(H)] | 1 to 2 µg/mL (≈ 2.19 to 4.38 µM) | – | – | –
Nc1nc2nc[nH]c2c(=S)[nH]1 [thioguanine] | – | unacceptable side effects due to toxicity | effective in treating the disease | clearing of psoriatic lesions (psoriasis): success in clearing lesions
NC(=O)c1nnn(Cc2cc(Cl)c(C(=O)c3ccc(Cl)cc3)c(Br)c2)c1N [(G)] | 2 µg/mL (≈ 4.26 µM) | – | – | –
O=c1[nH]cc(F)c(=O)[nH]1 [fluorouracil] | – | unacceptable side effects due to toxicity | effective in treating the disease | –
CN(Cc1cnc2nc(N)nc(N)c2n1)c1ccc(C(=O)N[C@@H](CCC(=O)O)C(=O)O)cc1 [Methotrexate, methotrexate, reference compound] | – | unacceptable side effects due to toxicity | effective in treating the disease | UV induced hyperproliferation, % Inhibition ([2]; i.d. injection): 93%; Labelled Cells ([2]; i.d., single injection 4 hours prior to 3H-thymidine, of 1175 basal cells counted): 100; LI (labelling index) ([2]; i.d., uv exposed Gel #1 control 20.8, normal 7.6): 8.5%
NC(=O)c1nnn(Cc2cc(Cl)c(Oc3ccc([N+](=O)[O-])cc3)c(Cl)c2)c1N [(K)] | 2 µg/mL (≈ 4.73 µM) | – | – | –
NC(=O)c1nnn(Cc2cc(Cl)c(C(=O)c3ccc(Cl)cc3)c(Cl)c2)c1N [(B)] | 2 µg/mL (≈ 4.71 µM) | – | – | –
NC(=O)c1nnn(Cc2cc(Cl)c(C(=O)c3ccc(Br)cc3)c(Cl)c2)c1N [(J)] | 1 to 2 µg/mL (≈ 2.13 to 4.26 µM) | – | – | –
N#Cc1ccc(C(=O)c2c(Cl)cc(Cn3nnc(C(N)=O)c3N)cc2Cl)cc1 [(F)] | 2 µg/mL (≈ 4.82 µM) | – | – | –
COc1c(C)c2c(c(O)c1C/C=C(\C)CCC(=O)O)C(=O)OC2 [Mycophenolic acid] | – | unacceptable side effects | controls psoriasis by causing remission when given orally | clearing of psoriatic lesions (psoriasis): success in clearing lesions
NC(=O)c1nnn(Cc2ccc(Sc3ccc(Cl)cc3)c(Cl)c2)c1N [(C)] | 1 to 2 µg/mL (≈ 2.54 to 5.07 µM) | – | – | –
NC(=O)c1nnn(Cc2ccc(Sc3ccc(Cl)cc3)c(C(F)(F)F)c2)c1N [(D)] | 1 to 2 µg/mL (≈ 2.34 to 4.67 µM) | – | – | –
Cc1cc(Cn2nnc(C(N)=O)c2N)cc(Cl)c1C(=O)c1ccc(C(F)(F)F)cc1 [(E)] | 2 µg/mL (≈ 4.57 µM) | – | – | –
Cc1cc(Cn2nnc(C(N)=O)c2N)cc(Cl)c1Oc1ccc(Cl)cc1 [(L)] | 2 µg/mL (≈ 5.1 µM) | – | – | –
O=C(O)C[C@H](NC(=O)CP(=O)(O)O)C(=O)O [N-phosphonacetyl-L-aspartate] | – | unacceptable side effects due to toxicity | effective in treating the disease | –
